How the values were obtained:
Assay in all cases: relative viability (nuclei count vs DMSO), 5 days (fraction); higher = more cells survive
[1] = compound: Cn1cc(-c2cnn3c(N)c(Br)c([C@@H]4CCCNC4)nc23)cn1
How it was run: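 Lung cancer cell lines in 1536-well plates were kept overnight at 37 °C, then pinned with five library-drug doses (not always all listed) spaced by √10 on vehicle-anchored plates. After 5 days without medium change, cells were fixed, permeabilised and Hoechst-stained in one step, imaged at 4×, and nuclei were counted with MetaXpress. Viability is treated-well nuclei divided by vehicle-well nuclei, taken as the median over plates. Plates passed only with control CV below 25% and at least one doubling.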

[2] = compound: Cn1cc(-c2cnn3c(N)c(Br)c([C@@H]4CCCNC4)nc23)cn1 + CC1(C)CCC(c2ccc(Cl)cc2)=C(CN2CCN(c3ccc(C(=O)NS(=O)(=O)c4ccc(N[C@H](CCN5CCOCC5)CSc5ccccc5)c(S(=O)(=O)C(F)(F)F)c4)cc3)CC2)C1 [Navitoclax] (partner 0.5 µM)
How it was run: (§1)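 Relative viability equals treated-well nuclei counts divided by vehicle-well nuclei counts. Counts came from 4× images of lung cancer cell lines grown in 1536-well plates for 5 days after pin-tool dosing on the day after seeding. Dosing used one drug alone or a fixed anchor-drug dose plus five library-drug doses (not always all listed) in √10 steps, and values are medians of duplicate plates.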

[3] = compound: Cn1cc(-c2cnn3c(N)c(Br)c([C@@H]4CCCNC4)nc23)cn1 + Cc1cc(Nc2cc(N3CCN(C)CC3)nc(Sc3ccc(NC(=O)C4CC4)cc3)n2)n[nH]1 [Tozasertib] (partner 0.1 µM)
How it was run: as §1

[4] = compound: Cn1cc(-c2cnn3c(N)c(Br)c([C@@H]4CCCNC4)nc23)cn1 + N=C(N)NC(=N)NCCc1ccccc1 [Phenformin] (partner 250 µM)
How it was run: as §1

Cell Line | relative viability ([1]; 0.05 µM) | relative viability ([1]; 0.1581 µM) | relative viability ([1]; 0.5 µM) | relative viability ([1]; 1.581 µM) | relative viability ([1]; 5 µM) | relative viability ([2]; first compound 0.05 µM) | relative viability ([2]; first compound 0.1581 µM) | relative viability ([2]; first compound 0.5 µM) | relative viability ([2]; first compound 1.581 µM) | relative viability ([2]; first compound 5 µM) | relative viability ([3]; first compound 0.05 µM) | relative viability ([3]; first compound 0.1581 µM) | relative viability ([3]; first compound 0.5 µM) | relative viability ([3]; first compound 1.581 µM) | relative viability ([3]; first compound 5 µM) | relative viability ([4]; first compound 0.05 µM) | relative viability ([4]; first compound 0.1581 µM) | relative viability ([4]; first compound 0.5 µM) | relative viability ([4]; first compound 1.581 µM) | relative viability ([4]; first compound 5 µM)
HCC-15 | 1.07 | 1.08 | 1.06 | 0.928 | 0.936 | 0.803 | 0.792 | 0.635 | 0.626 | 0.669 | 0.401 | 0.392 | 0.386 | 0.256 | 0.212 | 0.494 | 0.524 | 0.429 | 0.406 | 0.349
HCC-44 | 0.918 | 1.06 | 1.01 | 0.994 | 0.953 | 0.94 | 1.05 | 1.23 | 0.916 | 1.18 |  | 0.875 | 1.12 | 0.637 | 0.618 | 0.155 | 0.193 | 0.179 | 0.188 | 0.172
HCC-78 | 1 | 1.04 | 1.09 | 0.957 | 0.749 | 0.851 | 0.794 | 0.796 | 0.737 | 0.56 |  | 0.456 | 0.404 | 0.407 | 0.279 |  | 0.687 | 0.796 | 0.7 | 0.605
HCC-366 | 1.04 | 1.04 | 0.984 | 1.06 | 0.944 | 1.11 | 1.07 | 1.09 | 0.918 | 0.771 | 0.144 | 0.703 | 0.169 | 0.0808 | 0.0856 | 0.617 | 0.67 | 0.618 | 0.558 | 0.507
HCC-827 | 0.971 | 1.08 | 1.07 | 1.12 | 0.945 | 1.03 | 1.04 | 1.04 | 1.01 | 0.99 | 0.426 | 0.392 | 0.439 | 0.516 | 0.394 | 0.289 | 0.452 | 0.368 | 0.388 | 0.389
HOP-62 | 1.07 | 1.16 | 0.956 | 1.01 | 0.812 | 0.985 | 1.18 | 1.16 | 0.97 | 0.479 | 0.334 | 0.348 | 0.335 | 0.252 | 0.249 | 0.648 | 0.866 | 0.737 | 0.527 | 0.62
LC-2-ad | 1.02 | 1.05 | 1.02 | 0.899 | 1.04 | 0.394 | 0.606 | 0.395 | 0.423 | 0.429 | 0.39 | 0.382 | 0.442 | 0.464 | 0.355 | 0.558 | 0.643 | 0.64 | 0.539 | 0.529
LCLC-97TM1 | 0.982 | 1.11 | 1.1 | 0.969 | 0.925 | 0.462 | 0.439 | 0.325 | 0.343 | 0.46 | 0.202 | 0.286 | 0.188 | 0.269 | 0.194 | 0.499 | 0.47 | 0.464 | 0.458 | 0.411

Source: the supplement of paper PMC10307832
